Here are results for 30 molecules from US10239861B2, “Therapeutic compounds and uses thereof” (GENENTECH, INC., priority 2015, dated 2019).

Sequence of PCAF bromodomain (His/Flag epitope tagged PCAF719-832) (Q92831 719-832): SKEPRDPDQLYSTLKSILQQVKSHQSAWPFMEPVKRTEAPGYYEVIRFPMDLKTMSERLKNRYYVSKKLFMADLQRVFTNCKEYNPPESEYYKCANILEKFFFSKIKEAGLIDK

This assay concerns the target PCAF bromodomain (His/Flag epitope tagged PCAF719-832) (Homo sapiens (Human), UniProt Q92831). The assay is described as follows: PCAF AlphaLisa binding assay. Particulars: AlphaLisa; PCAF bromodomain 225 nM, biotinylated small molecule ligand 6 nM; read-out: PCAF IC50. As for the experimental part: IC50 Measurements for Inhibitors Using PCAF AlphaLisa Binding Assay
PCAF bromodomain binding and inhibition of the compounds disclosed herein was assessed by monitoring the engagement of biotinylated small molecule ligand (known to bind to the PCAF bromodomain) with the target using the AlphaLisa technology (Perkin-Elmer).
On to `CN1CCCCC(Nc2cnn(CC3CC3)c(=O)c2Cl)C1` (stereo not drawn) [Example 16, 4-chloro-2-(cyclopropylmethyl)-5((1-methylazepan-3-yl)amino)pyridazin-3(2H)-one], for which the IC50 worked out at 421 nM. As for `C/C=C/Cn1ncc(NC2CCCCN(C)C2)c(Cl)c1=O` (stereo not drawn) [Example 17, (E)-2-(but-2-en-1-yl)-4-chloro-5-((1-methylazepan-3-yl)amino)pyridazin-3(2H)-one], the figure is 312 nM; as for `CC1CCC(Nc2cnn(C)c(=O)c2Cl)CN1C` (stereo not drawn) [Example 25, 4-chloro-5-((1,6-dimethylpiperidin-3-yl)amino)-2-methylpyridazin-3(2H)-one], 60 nM. For `COCCN1CCCC(Nc2cnn(C)c(=O)c2Cl)C1` (stereo not drawn) [Example 30, 4-chloro-5-((1-(2-methoxyethyl)piperidin-3-yl)amino)-2-methylpyridazin-3(2H)-one] the value was 315 nM; for `Cn1ncc(NC2CCCN(C3COC3)C2)c(Cl)c1=O` (stereo not drawn) [Example 31, 4-chloro-2-methyl-5-((1-(oxetan-3-yl)piperidin-3-yl)amino)pyridazin-3(2H)-one], 1220 nM; for `CC(C)N1CCCC(Nc2cnn(C)c(=O)c2Cl)C1` (stereo not drawn) [Example 32, 4-chloro-5-((1-isopropylpiperidin-3-yl)amino)-2-methylpyridazin-3(2H)-one], 147 nM. With `Cn1ncc(NC2CCCN(Cc3ccccn3)C2)c(Cl)c1=O` (stereo not drawn) [Example 33, 4-chloro-2-methyl-5-((1-(pyridin-2-ylmethyl)piperidin-3-yl)amino)pyridazin-3(2H)-one], the IC50 amounted to 1980 nM. `C[C@H](c1ccccc1)N1CCCC(Nc2cnn(C)c(=O)c2Cl)C1` (stereo partly drawn) [Example 35, 4-chloro-2-methyl-5-((1-((R)-1-phenylethyl)piperidin-3-yl)amino)pyridazin-3(2H)-one]: the IC50 was 671 nM.

Take `C[C@@H](c1ccccc1)N1CCCC(Nc2cnn(C)c(=O)c2Cl)C1` (stereo partly drawn) [Example 36, 4-chloro-2-methyl-5-((1-((S)-1-phenylethyl)piperidin-3-yl)amino)pyridazin-3(2H)-one]: the IC50 amounted to 631 nM. As for `Cn1ncc(N[C@@H]2CCCCN(Cc3ccccc3)C2)c(Cl)c1=O` [Example 37, (R)-5-((1-benzylazepan-3-yl)amino)-4-chloro-2-methylpyridazin-3(2H)-one], the IC50 came to 972 nM. With `Cn1ncc(N[C@H]2CCCCN(Cc3ccccc3)C2)c(Cl)c1=O` [Example 38, (S)-5-((1-benzylazepan-3-yl)amino)-4-chloro-2-methylpyridazin-3(2H)-one], the IC50 came out at 3770 nM. Turning to `CN1Cc2ccccc2C[C@@H](Nc2cnn(C)c(=O)c2Cl)C1` [Example 39, (R)-4-chloro-2-methyl-5-((2-methyl-2,3,4,5-tetrahydro-1H-benzo[c]azepin-4-yl)amino)pyridazin-3(2H)-one], the IC50 turned out to be 102 nM. As for `CN1CCCCCC(Nc2cnn(C)c(=O)c2Cl)C1` (stereo not drawn) [Example 40, 4-chloro-2-methyl-5-((1-methylazocan-3-yl)amino)pyridazin-3(2H)-one], the figure is 155 nM.

For the molecule `Cn1ncc(NC2CCCN(Cc3c(F)cccc3F)C2)c(Cl)c1=O` (stereo not drawn) [Example 42, 4-chloro-5-((1-(2,6-difluorobenzyl)piperidin-3-yl)amino)-2-methylpyridazin-3(2H)-one], the IC50 was 1000 nM. For `CN(C)c1ccc(CN2CCCC(Nc3cnn(C)c(=O)c3Cl)C2)cc1` (stereo not drawn) [Example 43, 4-chloro-5-[[1-[(4-dimethylaminophenyl)methyl]-3-piperidyl]amino]-2-methyl-pyridazin-3-one], the IC50 is 310 nM. For `Cn1ncc(NC2CCCN(Cc3cccc(OC(F)F)c3)C2)c(Cl)c1=O` (stereo not drawn) [Example 44, 4-chloro-5-[[1-[[3-(difluoromethoxy)phenyl]methyl]-3-piperidyl]amino]-2-methyl-pyridazin-3-one] the value was 94.9 nM; for `Cn1ncc(NC2CCCN(Cc3ccc(-n4ccnc4)cc3)C2)c(Cl)c1=O` (stereo not drawn) [Example 45, 4-chloro-5-[[1-[(4-imidazol-1-ylphenyl)methyl]-3-piperidyl]amino]-2-methyl-pyridazin-3-one], 386 nM. For `Cn1ncc(NC2CCCN(Cc3cc(Cl)cc(Cl)c3)C2)c(Cl)c1=O` (stereo not drawn) [Example 46, 4-chloro-5-((1-(3,5-dichlorobenzyl)piperidin-3-yl)amino)-2-methylpyridazin-3(2H)-one] the value was 278 nM; for `Cn1ncc(NC2CCCN(Cc3ccccc3N3CCOCC3)C2)c(Cl)c1=O` (stereo not drawn) [Example 47, 4-chloro-2-methyl-5-[[1-[(2-morpholinophenyl)methyl]-3-piperidyl]amino]pyridazin-3-one], 921 nM. As for `Cn1ncc(NC2CCCN(Cc3ncc[nH]3)C2)c(Cl)c1=O` (stereo not drawn) [Example 48, 4-chloro-5-[[1-(1H-imidazol-2-ylmethyl)-3-piperidyl]amino]-2-methyl-pyridazin-3-one], the IC50 was 379 nM. In the case of `Cn1ncc(NC2CCCN(Cc3c[nH]cn3)C2)c(Cl)c1=O` (stereo not drawn) [Example 49, 4-chloro-5-[[1-(1H-imidazol-4-ylmethyl)-3-piperidyl]amino]-2-methyl-pyridazin-3-one], the IC50 came out at 178 nM.

`Cn1ncc(NC2CCCN(Cc3cncnc3)C2)c(Cl)c1=O` (stereo not drawn) [Example 50, 4-chloro-2-methyl-5-[[1-(pyrimidin-5-ylmethyl)-3-piperidyl]amino]pyridazin-3-one]: the IC50 is 625 nM.

As for `Cn1cc(CN2CCCC(Nc3cnn(C)c(=O)c3Cl)C2)cn1` (stereo not drawn) [Example 51, 4-chloro-2-methyl-5-[[1-[(1-methylpyrazol-4-yl)methyl]-3-piperidyl]amino]pyridazin-3-one], the IC50 came to 371 nM. `Cn1ccnc1CN1CCCC(Nc2cnn(C)c(=O)c2Cl)C1` (stereo not drawn) [Example 52, 4-chloro-2-methyl-5-((1-((1-methyl-1H-imidazol-2-yl)methyl)piperidin-3-yl)amino)pyridazin-3(2H)-one]: the IC50 was 1410 nM. As for `Cc1cncc(CN2CCCC(Nc3cnn(C)c(=O)c3Cl)C2)c1` (stereo not drawn) [Example 53, 4-chloro-2-methyl-5-[[1-[(5-methyl-3-pyridyl)methyl]-3-piperidyl]amino]pyridazin-3-one], the figure is 441 nM; as for `Cc1nc(CN2CCCC(Nc3cnn(C)c(=O)c3Cl)C2)[nH]c1C` (stereo not drawn) [Example 54, 4-chloro-5-[[1-[(4,5-dimethyl-1H-imidazol-2-yl)methyl]-3-piperidyl]amino]-2-methyl-pyridazin-3-one], 1440 nM; as for `Cn1ncc(NC2CCCN(Cc3nc(-c4ccc(Cl)cc4)no3)C2)c(Cl)c1=O` (stereo not drawn) [Example 55, 4-chloro-5-[[1-[[3-(4-chlorophenyl)-1,2,4-oxadiazol-5-yl]methyl]-3-piperidyl]amino]-2-methyl-pyridazin-3-one], 466 nM.

On to `Cn1ncc(NC2CCCN(Cc3ccc(F)cc3)C2)c(Cl)c1=O` (stereo not drawn) [Example 56, 4-chloro-5-[[1-[(4-fluorophenyl)methyl]-3-piperidyl]amino]-2-methyl-pyridazin-3-one], for which the IC50 turned out to be 139 nM. In the case of `CN1CCCC[C@H](Nc2cnn(C)c(=O)c2Cl)C1` [Example 57, (S)-4-chloro-2-methyl-5-((1-methylazepan-3-yl)amino)pyridazin-3(2H)-one], the IC50 worked out at 32.9 nM. In the case of `CN1CCCC[C@@H](Nc2cnn(C)c(=O)c2Cl)C1` [Example 58, (R)-4-chloro-2-methyl-5-((1-methylazepan-3-yl)amino)pyridazin-3(2H)-one], the IC50 was found to be 169 nM.

Broadly, the IC50 is the concentration needed to halve the response being measured.
